What all share (type): cell-based
One assay deals with PC3 cells. Briefly: Cell Viability Assay (ATPlite 1step), PC3. To be noted: Homo sapiens, PC-3, 72 hours; for percent inhibition of cell viability at 4 µM: PC3, 4 uM compound, read-out: Cell Viability % inhibition PC3 (4 uM Cpd); for percent inhibition of cell viability at 20 µM: PC3, 20 uM compound, read-out: Cell Viability % inhibition PC3 (20 uM Cpd). How it is done: (§1) Cell Viability Assay Protocol
(§2) Cells were trypsinized, counted, and re-seeded into a 384-well tissue culture plate at 1000 cells per well in […] media. Cells were incubated at 37° C. in an atmosphere of 5% CO2 for 24 hours. Experimental compounds, initially dissolved in DMSO and diluted further in media were added to the wells and incubated for 72 hours. Cell viability was measured using the ATPlite 1step Luminescence Detection Assay system (Perkin Elmer) as described in the Assay kit instructions.
(§3) Cell Culture Lines and Media: (1) A2780 cells were cultured in RPMI media with 10% FBS and 1% antibiotics. Cells were typically split every 3-5 days at a 1:10 dilution; (2) PC3 cells were cultured in RPMI media with 10% FBS and 1% antibiotics. Cells were typically split every 3-5 days at a 1:4 dilution; (3) MCF-7 cells were grown in K-12F media with 10% FBS and 1% antibiotics. Cells were typically split every 3-5 days at a 1:10 dilution.

The test system of the next assay is A2780 cells. Briefly: Cell Viability Assay (ATPlite 1step), A2780. The settings on record: Homo sapiens, 72 hours; for percent inhibition of cell viability at 4 µM: A2780, 4 uM compound, read-out: Cell Viability % inhibition A2780 (4 uM Cpd); for percent inhibition of cell viability at 20 µM: A2780, 20 uM compound, read-out: Cell Viability % inhibition A2780 (20 uM Cpd). The method, then: as §1, §2, §3

The subject of another assay is MCF-7 cells. As to the kind of experiment: Cell Viability Assay (ATPlite 1step), MCF-7. The settings on record: Homo sapiens, MCF7, 72 hours; for percent inhibition of cell viability at 4 µM: MCF-7, 4 uM compound, read-out: Cell Viability % inhibition MCF-7 (4 uM Cpd); for percent inhibition of cell viability at 20 µM: MCF-7, 20 uM compound, read-out: Cell Viability % inhibition MCF-7 (20 uM Cpd). The method, then: as §1, §2, §3

For `Cc1ncc(C(=O)Nc2ccc(-c3ccccc3)cn2)cn1` [Compound 8, 2-methyl-N-(5-phenylpyridin-2-yl)pyrimidine-5-carboxamide], the values for the percent inhibition of cell viability at 4 µM with PC3 cells, with A2780 cells and with MCF-7 cells were 71.6%, 89.8% and 68.7%, respectively. In addition, the results for the percent inhibition of cell viability at 20 µM in the assay on PC3 cells, in the assay with A2780 cells and in the assay with MCF-7 cells were 71.7%, 90.8% and 74.5%, respectively.
As to `Nc1ncc(C(=O)Nc2ccc(-c3ccccc3)cn2)cn1` [Compound 9, 2-amino-N-(5-phenylpyridin-2-yl)pyrimidine-5-carboxamide], the percent inhibition of cell viability at 4 µM amounted to 70.7% in the assay on PC3 cells, 92.5% with A2780 cells and 70.9% in the assay on MCF-7 cells. Further, the values for the percent inhibition of cell viability at 20 µM in the assay with PC3 cells, in the assay with A2780 cells and in the assay on MCF-7 cells were 76.7%, 90.6% and 75.5%, respectively.
In the case of `O=C(Nc1ccc(-c2ccccc2)cn1)c1cccnc1` [Compound 10, N-(5-phenylpyridin-2-yl)pyridine-3-carboxamide], the percent inhibition of cell viability at 4 µM was 71.8% in the assay with PC3 cells, 92.7% in the assay with A2780 cells and 61.4% in the assay on MCF-7 cells. Moreover, the values for the percent inhibition of cell viability at 20 µM in the assay on PC3 cells, with A2780 cells and in the assay on MCF-7 cells were 87.3%, 95.2% and 86.4%, respectively.
With `O=C(Nc1ccc(-c2cccs2)cn1)c1cccnc1` [Compound 11, N-[5-(thiophen-2-yl)pyridin-2-yl]pyridine-3-carboxamide], the figures for the percent inhibition of cell viability at 4 µM with PC3 cells, in the assay on A2780 cells and in the assay with MCF-7 cells were 70%, 85% and 58.6%, respectively. Besides, the percent inhibition of cell viability at 20 µM in the assay with PC3 cells is 83.8%; in the assay with A2780 cells, 97.8%; with MCF-7 cells, 88.9%.
`O=C(Nc1ncc(-c2ccccc2)cn1)c1cncnc1` [Compound 12, N-(5-phenylpyrimidin-2-yl)pyrimidine-5-carboxamide]: the percent inhibition of cell viability at 4 µM in the assay on PC3 cells was 59.7%; in the assay on A2780 cells it was 82.7%; with MCF-7 cells, 53.7%. Further, the values for the percent inhibition of cell viability at 20 µM in the assay with PC3 cells, in the assay on A2780 cells and in the assay with MCF-7 cells were 69.2%, 91.3% and 69.8%, respectively.
Consider `Cc1ncc(C(=O)Nc2ccc(-c3cccc(C4COC4)c3)cn2)cn1` [Compound 42, 2-methyl-N-{5-[3-(oxetan-3-yl)phenyl]pyridin-2-yl}pyrimidine-5-carboxamide], for which, in the assay with PC3 cells, the percent inhibition of cell viability at 4 µM was found to be 80.3% and the percent inhibition of cell viability at 20 µM was 84.5%. Besides, in the assay with A2780 cells, the percent inhibition of cell viability at 4 µM was 85% and the percent inhibition of cell viability at 20 µM is 85.2%.
With `O=C(Nc1ccc(-c2cccc(C3COC3)c2)cn1)c1cccnc1` [Compound 43, N-{5-[3-(oxetan-3-yl)phenyl]pyridin-2-yl}pyridine-3-carboxamide], in the assay on PC3 cells, the percent inhibition of cell viability at 4 µM turned out to be 75.1% and the percent inhibition of cell viability at 20 µM is 84.5%. In addition, in the assay on A2780 cells, the percent inhibition of cell viability at 4 µM is 82.6% and the percent inhibition of cell viability at 20 µM worked out at 86.7%.
`O=C(Nc1ccc(-c2cccc(C3CCC3)c2)cn1)c1cncnc1` [Compound 45, N-[5-(3-cyclobutylphenyl)pyridin-2-yl]pyrimidine-5-carboxamide]: in the assay on PC3 cells, the percent inhibition of cell viability at 4 µM came to 80.8% and the percent inhibition of cell viability at 20 µM was 83.3%. In the assay with A2780 cells, the percent inhibition of cell viability at 4 µM came out at 87.6% and the percent inhibition of cell viability at 20 µM was 86.4%.
For the molecule `CC(C)(C)c1cccc(-c2ccc(NC(=O)c3cncnc3)nc2)c1` [Compound 46, N-[5-(3-tert-butylphenyl)pyridin-2-yl]pyrimidine-5-carboxamide], in the assay with PC3 cells, the percent inhibition of cell viability at 4 µM was found to be 68.5% and the percent inhibition of cell viability at 20 µM was 67.6%. Besides, in the assay on A2780 cells, the percent inhibition of cell viability at 4 µM is 71.1% and the percent inhibition of cell viability at 20 µM stood at 71.8%.
For the molecule `Cc1ncc(C(=O)Nc2ccc(-c3cccc(NC4CCNC4)c3)cn2)cn1` (centres unmarked) [Compound 55, 2-methyl-N-{5-[3-(pyrrolidin-3-ylamino)phenyl]pyridin-2-yl}pyrimidine-5-carboxamide], in the assay with PC3 cells, the percent inhibition of cell viability at 4 µM came out at 81.1% and the percent inhibition of cell viability at 20 µM was 82.2%. In addition, in the assay on A2780 cells, the percent inhibition of cell viability at 4 µM is 80.3% and the percent inhibition of cell viability at 20 µM turned out to be 87.4%.
`NCCNc1ncc(C(=O)Nc2ccc(-c3cccc(C4CC4)c3)cn2)cn1` [Compound 56, 2-[(2-aminoethyl)amino]-N-[5-(3-cyclopropylphenyl)pyridin-2-yl]pyrimidine-5-carboxamide]: in the assay on PC3 cells, the percent inhibition of cell viability at 4 µM amounted to 81.4% and the percent inhibition of cell viability at 20 µM amounted to 97.4%. Besides, in the assay on A2780 cells, the percent inhibition of cell viability at 4 µM amounted to 88% and the percent inhibition of cell viability at 20 µM was determined as 97.6%.
For `COc1ncc(C(=O)Nc2ccc(-c3cccc(OC4CC4)c3)cn2)cn1` [Compound 57, N-{5-[3-(cyclopropyloxy)phenyl]pyridin-2-yl}-2-methoxypyrimidine-5-carboxamide] the same measures were 85.1%, 89%, 88.3% and 89.8%.
As to `NCCNc1ncc(C(=O)Nc2ccc(-c3cccc(OC4CC4)c3)cn2)cn1` [Compound 58, 2-[(2-aminoethyl)amino]-N-[5-(3-cyclopropyloxyphenyl)pyridin-2-yl]pyrimidine-5-carboxamide], the percent inhibition of cell viability at 4 µM was determined as 77.7% in the assay on PC3 cells and 86.6% in the assay on A2780 cells. Besides, the results for the percent inhibition of cell viability at 20 µM with PC3 cells and in the assay with A2780 cells were 93.6% and 91.1%, respectively.
Turning to `COc1ncc(C(=O)Nc2ccc(-c3cccc(C4CC4)c3)cn2)cn1` [Compound 59, N-[5-(3-cyclopropylphenyl)pyridin-2-yl]-2-methoxypyrimidine-5-carboxamide], the results for the percent inhibition of cell viability at 4 µM in the assay on PC3 cells and in the assay with A2780 cells were 82.6% and 87.8%, respectively. Also, the percent inhibition of cell viability at 20 µM in the assay with PC3 cells amounted to 88.5%; in the assay on A2780 cells it was 90.4%.
Consider `O=C(Nc1ccc(-c2cccc(C3CC3)c2)cn1)c1cnc(O)nc1` [Compound 60, N-[5-(3-cyclopropylphenyl)pyridin-2-yl]-2-hydroxypyrimidine-5-carboxamide], for which, in the assay on PC3 cells, the percent inhibition of cell viability at 4 µM came out at 48.8% and the percent inhibition of cell viability at 20 µM was found to be 80.6%. For the same molecule, in the assay with A2780 cells, the percent inhibition of cell viability at 4 µM turned out to be 77.1% and the percent inhibition of cell viability at 20 µM worked out at 83.7%.
Consider `Cc1ncc(C(=O)Nc2ccc(-c3cc(O)cc(C4CC4)c3)cn2)cn1` [Compound 65, N-[5-(3-cyclopropyl-5-hydroxyphenyl)pyridin-2-yl]-2-methylpyrimidine-5-carboxamide], for which, in the assay with PC3 cells, the percent inhibition of cell viability at 4 µM came to 80.5% and the percent inhibition of cell viability at 20 µM was found to be 82.2%. In the assay on A2780 cells, the percent inhibition of cell viability at 4 µM came out at 85.9% and the percent inhibition of cell viability at 20 µM was found to be 89.8%.

The record behind these values is patent US12383533B2 (Frost Biologic, Inc., priority 2014, dated 2025).
